One compound from patent publication US20200010482A1, “INHIBITORS OF BETA SECRETASE” (Janssen Pharmaceutica NV, priority 2017, published 2020) can be followed below.

The subject of this test is brain levels of soluble Aβ42, Aβ40, Aβ38, and Aβ37. Kind of test: In vivo Aβ lowering, brain levels of soluble Aβ by MSD electrochemiluminescence. Details: species or system mouse. As to conditions: 10 mg/kg s.c., 4 h after administration; untreated animals as control set at 100. An excerpt: To determine whether acute administration of an Aβ lowering agent would reduce Aβ levels in vivo, non-transgenic rodents, e.g. mice or rats were used. Animals treated with the Aβ lowering agent were examined and compared to those untreated or treated with vehicle and brain levels of soluble Aβ42, Aβ40, Aβ38, and Aβ37 were quantitated by Meso Scale Discovery's (MSD) electrochemiluminescence detection technology. Treatment periods varied from hours (h) to days and were adjusted based on the results of the Aβ lowering once a time course of onset of effect could be established.
A typical protocol for measuring Aβ lowering in vivo is shown but it is only one of many variations that could be used to optimize the levels of detectable Aβ. […] After 4 h, the animals were sacrificed and Aβ levels were analysed.
Blood was collected by decapitation and exsanguinations in EDTA-treated collection tubes. […] The left hemisphere was stored at −18° C. for quantitative analysis of test compound levels. […]
Mouse brains from non-transgenic animals were resuspended in 8 volumes of 0.4% DEA (diethylamine)/50 mM NaCl containing protease inhibitors (Roche-11873580001 or 04693159001) per gram of tissue, e.g. for 0.158 g brain, add 1.264 ml of 0.4% DEA. […] Nine parts of supernatant were neutralized with 1 part 0.5 M Tris-HCl pH 6.8 and used to quantify Aβ. […]

Consider `COc1ncc(C#N)c2c1C[C@]1(c3ccccc3F)N=C(N)SC[C@@H]1C2` (racemic) [Compound 22], for which the “Aβ40 (% vs Ctrl)_Mean” value stood at 39 % vs Ctrl and the “Aβ42 (% vs Ctrl)_Mean” value amounted to 32 % vs Ctrl.
